Where two headings read alike, the source gives them in different places.
Columns and labels:
[1] = Body weight in Compound 1 PC3 xenograft efficacy studies; assay type: in vivo, SCID mice
Experimental: The BID dose groups were dosed with a 10-hour separation between the morning and evening doses. […] At the end of each study, plasma and/or tumor samples were collected.
Initial body weights were recorded prior to the initiation of treatment using a digital scale. The percent body weight change during the course of the study was calculated using initial body weight measurements. Body weights of each animal were measured twice a week at the same time that tumor measurements were taken. Body weights were measured more frequently if significant decreases were noted during the course of the study.

Ki-67 = Ki-67 immunohistochemistry in PC3 tumors (Compound 1); assay type: in vivo, SCID mice; details: 25 mg/kg oral QD for 6 days, 2 hours after last dose
Experimental: Two hours after the last dose of either vehicle, Compound 1, or rapamycin, the mice were euthanized and the tumors were dissected. The tumors were snap frozen in liquid nitrogen and processed for immunohistochemistry (IHC) and TUNEL.
Five to ten micron thick cryostat sections of tumor samples were used for IHC. The expression of a cell proliferation marker Ki-67 was evaluated by IHC using anti-Ki-67 antibody. Anti-CD-31 antibody was used to determine blood vessel density and is a measurement of tumor angiogenesis. Frozen sections were fixed in 4% paraformaldehyde for 10 minutes at room temperature, washed in PBS, blocked and permeabilized with normal goat serum and triton x-100. Sections were then incubated with primary antibody (overnight) followed by incubation with secondary antibody (60 minutes). […] The sections were visualized with a Nikon E800 microscope equipped with fluorescence detection equipment and a digital camera attached to a computer.
The tissues sections processed for apoptosis or immunostained for proliferating cells (Ki-67) or blood vessels were quantitated using Metamorph software. Using 20× objective, 5 different fields from each section, 2 to 4 sections from each tumor, and 3 to 4 tumors from each treatment group or control were used for quantitation. The area of interest was expressed as the percent threshold area of the total area.

[2] = Mouse plasma protein binding; assay type: in vitro ADME; details: Compound 1
4EBP1 (T46) = test: p-4E-BP1 (T46) in PC-3 cell lysates, ELISA (Compound 2); assay type: cell-based; details: Homo sapiens; PC-3, 1 hour; read-out: mTORC1 4EBP1 (T46) IC50
Experimental: The direct substrate for mTORC1 was 4E-BP1([…]) and the indirect downstream substrate was S6RP (S235/[…]). The direct substrate for mTORC2 was AKT (S473) and the indirect downstream substrates measured were GSK3β(S9) and PRAS40 ([…]). Additionally, the phosphorylation status of AKT (T308), a phosphorylation site for PDK1, was monitored. Concentration-response curves were plotted and IC50 values determined. Cells were plated at the required density as described in the previous section detailing the Meso Scale assays. […] After incubation with compound, the culture medium was removed via aspiration. Then the plate was placed on ice and 35 μL of the Invitrogen Cell Extraction Buffer (containing fresh PMSF and protease inhibitor cocktail) were added to each well. The treated cells were allowed to undergo lysis for a total of 30 minutes on ice and then shaken for 2 minutes at 4° C. At this point, the plate could be either frozen at -80° C. for later analysis or analyzed immediately with the Invitrogen 4E-BP1[[…]] assay kit. Standards were prepared according to the supplied protocol and 100 μL of each standard was added to appropriate wells. Samples containing Cell Extraction buffer only or diluent buffers only also were included for background controls. […] Absorbance was measured at 450 nm on the VICTORTM X2 multilabel plate reader (Perkin Elmer).

[3] = Compound 2 concentrations in plasma by LC-MS/MS; assay type: in vivo, SCID mice; details: for concentration at 0.5 h / concentration at 1 h / concentration at 3 h / concentration at 6 h / concentration at 10 h / concentration at 24 h / AUC(0-t): female, SCID, mouse, plasma; for concentration at 0.5 h / concentration at 1 h / concentration at 3 h / concentration at 6 h / concentration at 10 h / concentration at 24 h: oral; for AUC(0-t): po
CD31 = CD31 immunohistochemistry in PC3 tumors (Compound 2); assay type: in vivo, SCID mice; details: 5 mg/kg oral QD for 6 days, 2 hours after last dose

In the case of CO[C@H]1CC[C@H](N2C(=O)CNc3ncc(-c4ccc(C(C)(C)O)nc4)nc32)CC1 [Compound 1, 7-(6-(2-hydroxypropan-2-yl)pyridin-3-yl)-1-((1r,4r)-4-methoxycyclohexyl)-3,4-dihydropyrazino-[2,3-b]pyrazin-2(1H)-one], the “change in body weight” value ([1]; 10 mg/kg QD, 3 weeks, data not shown) is reported as “No significant change”, the “loss of initial body mass” value ([1]; 25 mg/kg QD, end of the first cycle) is reported as “approximately 10%” and the body weight loss ([1]; 25 mg/kg QD, intermittent dosing study period) is reported as “about 10%”. For the same compound, the body weight change ([1]; 25 mg/kg QD, second dosing cycle) was “about 5%”, the “loss of initial body weight” value ([1]; regression study, 25 mg/kg QD, by Day 26, euthanized) was “over 19%” and the “reduction in the number of proliferating cells (Ki-67) vs vehicle” value (Ki-67) was 84%. For the same compound, the “mouse plasma protein binding” value [2] was 88%.

In the case of CCN1C(=O)CNc2ncc(-c3ccc(-c4nc[nH]n4)nc3C)nc21 [Compound 2, 1-ethyl-7-(2-methyl-6-(1H-1,2,4-triazol-3-yl)pyridin-3-yl)-3,4-dihydropyrazino[2,3-b]pyrazin-2(1H)-one], the IC50 (4EBP1 (T46)) is reported as 130 nM, the “Plasma Compound 2 Concentration (μM) Mean ± SEM” value ([3]; 0.1 mg/kg single oral dose, 24 h) is reported as “BLQ” and the “Plasma Concentration (μM) Mean ± SEM” value ([3]; 2 mg/kg QD, 10 h after last dose) is reported as 0.21 ± 0.05 µM. For the same compound, the concentration at 0.5 h ([3]; 0.1 mg/kg, Plasma Compound 2 Concentration (μM) Mean ± SEM, 0.1 mg/kg single oral dose) was 0.05 µM, the concentration at 1 h ([3]; 0.1 mg/kg, Plasma Compound 2 Concentration (μM) Mean ± SEM, 0.1 mg/kg single oral dose, 1 h) was 0.04 µM and the concentration at 3 h ([3]; 0.1 mg/kg, Plasma Compound 2 Concentration (μM) Mean ± SEM, 0.1 mg/kg single oral dose, 3 h) was 0.02 µM. The concentration at 6 h ([3]; 0.1 mg/kg, Plasma Compound 2 Concentration (μM) Mean ± SEM, 0.1 mg/kg single oral dose, 6 h) was 0.02 µM, the concentration at 10 h ([3]; 0.1 mg/kg, Plasma Compound 2 Concentration (μM) Mean ± SEM, 0.1 mg/kg single oral dose, 10 h) was 0.01 µM and the concentration at 0.5 h ([3]; 0.3 mg/kg, Plasma Compound 2 Concentration (μM) Mean ± SEM, 0.3 mg/kg single oral dose) was 0.16 ± 0.03 µM. For the same compound, the concentration at 1 h ([3]; 0.3 mg/kg, Plasma Compound 2 Concentration (μM) Mean ± SEM, 0.3 mg/kg single oral dose, 1 h) was 0.16 ± 0.01 µM, the concentration at 3 h ([3]; 0.3 mg/kg, Plasma Compound 2 Concentration (μM) Mean ± SEM, 0.3 mg/kg single oral dose, 3 h) was 0.07 ± 0.01 µM and the concentration at 6 h ([3]; 0.3 mg/kg, Plasma Compound 2 Concentration (μM) Mean ± SEM, 0.3 mg/kg single oral dose, 6 h) was 0.07 ± 0.01 µM. For the same compound, the concentration at 10 h ([3]; 0.3 mg/kg, Plasma Compound 2 Concentration (μM) Mean ± SEM, 0.3 mg/kg single oral dose, 10 h) was 0.04 ± 0.01 µM, the concentration at 24 h ([3]; 0.3 mg/kg, Plasma Compound 2 Concentration (μM) Mean ± SEM, 0.3 mg/kg single oral dose, 24 h) was 0 µM and the concentration at 1 h ([3]; 1 mg/kg, 1 mg/kg BID, 1 h after last dose, read-out: Plasma Concentration (μM) Mean ± SEM) was 0.73 ± 0.14 µM. The concentration at 3 h ([3]; 1 mg/kg, 1 mg/kg BID, 3 h after last dose, read-out: Plasma Concentration (μM) Mean ± SEM) was 0.48 ± 0.04 µM, the concentration at 6 h ([3]; 1 mg/kg, 1 mg/kg BID, 6 h after last dose, read-out: Plasma Concentration (μM) Mean ± SEM) was 0.22 ± 0.04 µM and the concentration at 10 h ([3]; 1 mg/kg, 1 mg/kg BID, 10 h after last dose, read-out: Plasma Concentration (μM) Mean ± SEM) was 0.11 ± 0.01 µM. For the same compound, the concentration at 24 h ([3]; 1 mg/kg, 1 mg/kg BID, 24 h after last dose, read-out: Plasma Concentration (μM) Mean ± SEM) was 0.02 µM, the concentration at 10 h ([3]; 1 mg/kg, 1 mg/kg single dose, read-out: plasma concentration at which pS6RP and pAKT (S473) were inhibited through 10 hours) was 0.12 ± 0.003 µM and the concentration at 1 h ([3]; 1 mg/kg, Plasma Compound 2 Concentration (μM) Mean ± SEM, 1 mg/kg single oral dose, 1 h) was 0.53 ± 0.02 µM. The concentration at 3 h ([3]; 1 mg/kg, Plasma Compound 2 Concentration (μM) Mean ± SEM, 1 mg/kg single oral dose, 3 h) was 0.34 ± 0.01 µM, the concentration at 6 h ([3]; 1 mg/kg, Plasma Compound 2 Concentration (μM) Mean ± SEM, 1 mg/kg single oral dose, 6 h) was 0.13 ± 0.01 µM and the concentration at 10 h ([3]; 1 mg/kg, Plasma Compound 2 Concentration (μM) Mean ± SEM, 1 mg/kg single oral dose, 10 h) was 0.12 µM. The concentration at 24 h ([3]; 1 mg/kg, Plasma Compound 2 Concentration (μM) Mean ± SEM, 1 mg/kg single oral dose, 24 h) was 0.005 µM, the concentration at 1 h ([3]; 2 mg/kg, 2 mg/kg QD, 1 h after last dose, read-out: Plasma Concentration (μM) Mean ± SEM) was 1.02 ± 0.2 µM and the concentration at 3 h ([3]; 2 mg/kg, 2 mg/kg QD, 3 h after last dose, read-out: Plasma Concentration (μM) Mean ± SEM) was 0.59 ± 0.08 µM. For the same compound, the concentration at 6 h ([3]; 2 mg/kg, 2 mg/kg QD, 6 h after last dose, read-out: Plasma Concentration (μM) Mean ± SEM) was 0.27 ± 0.08 µM, the concentration at 10 h ([3]; 2 mg/kg, 2 mg/kg QD, 10 h after last dose, read-out: Plasma Concentration (μM) Mean ± SEM) was 0.21 µM and the concentration at 24 h ([3]; 2 mg/kg, 2 mg/kg QD, 24 h after last dose, read-out: Plasma Concentration (μM) Mean ± SEM) was 0.02 ± 0.01 µM. It also gave a concentration at 24 h ([3]; 5 mg/kg, Compound 2 in the plasma, efficacy study, 5 mg/kg QD, 24 hours after the last dose) of 0.13 µM, a concentration at 1 h ([3]; 10 mg/kg, Plasma Compound 2 Concentration (μM) Mean ± SEM, 10 mg/kg single oral dose, 1 h) of 6.78 ± 1.16 µM and a concentration at 3 h ([3]; 10 mg/kg, Plasma Compound 2 Concentration (μM) Mean ± SEM, 10 mg/kg single oral dose, 3 h) of 5.69 ± 0.96 µM. It also gave a concentration at 6 h ([3]; 10 mg/kg, Plasma Compound 2 Concentration (μM) Mean ± SEM, 10 mg/kg single oral dose, 6 h) of 2.1 ± 0.22 µM, a concentration at 10 h ([3]; 10 mg/kg, Plasma Compound 2 Concentration (μM) Mean ± SEM, 10 mg/kg single oral dose, 10 h) of 1.18 ± 0.2 µM and a concentration at 24 h ([3]; 10 mg/kg, Plasma Compound 2 Concentration (μM) Mean ± SEM, 10 mg/kg single oral dose, 24 h) of 0.8 ± 0.09 µM. For the same compound, the AUC(0-t) ([3]; 0.5 mg/kg, 0.5 mg/kg BID, after last dose, read-out: total plasma AUC0-10 h) was 1.42 µM·h, the AUC(0-t) ([3]; 1 mg/kg, 1 mg/kg BID, after last dose, read-out: total plasma AUC0-10 h) was 3.27 µM·h and the AUC(0-t) ([3]; 1 mg/kg, 1 mg/kg QD (BID/QD study), read-out: total plasma AUC0-24 h) was 2.95 µM·h. For the same compound, the AUC(0-t) ([3]; 1 mg/kg, 1 mg/kg QD, last day, read-out: total plasma AUC0-24 h) was 2.33 µM·h, the AUC(0-t) ([3]; 2 mg/kg, 2 mg/kg QD, last day, read-out: total plasma AUC0-24 h) was 5.93 µM·h and the AUC(0-t) ([3]; 5 mg/kg, 5 mg/kg QD, last day, read-out: total plasma AUC0-24 h) was 17 µM·h. The “reduction of CD31 positive blood vessels vs vehicle” value (CD31) was 50%.

Source: patent US20140113904A1, “TREATMENT OF CANCER WITH TOR KINASE INHIBITORS” (SIGNAL PHARMACEUTICALS, LLC, priority 2012, published 2014)
